# Results as given in patent US12083231B2, “Starch-based double-loaded functional nano particle as well as preparation method and application” (Hefei University of Technology, priority 2021, dated 2024).
# Test: Retention rate of quercetin and anthocyanin during storage for 14 days
# Assay type: physicochemical
# Conditions: after being stored for 14 days; nanoparticle with EHT:carboxymethyl dextrin mass ratio 1:1
# From the text: It can be seen from FIG. 8 that quercetin and anthocyanin alone are easy to degrade in the environment, and only about 20% of quercetin and anthocyanin can be retained after being stored for 14 days. […] The significant increase of retention rate proves that the starch-based double-loaded functional colloid nanoparticle can effectively protect quercetin and anthocyanin from being degraded.
Compound,retention rate of quercetin,retention rate of anthocyanin
O=c1c(O)c(-c2ccc(O)c(O)c2)oc2cc(O)cc(O)c12 [quercetin],about 20%,
anthocyanin,,about 20%
